Structures are written as SMILES.

One assay relates to Beclin-1. Put plainly: Beclin-1 expression and Beclin 1 siRNA depletion in N2a cells. The class given is cell-based, mouse. As to the method:
FIG. 7: Western blot analysis of expression level of phosphorylated mTOR (p-mTOR) or its substrate P70S6K (p-P70S6K) in N2a cells with treatment of 25 μM Cory B or 0.2 μM rapamycin for 6 hours (FIG. 7A); western blot analysis of Beclin 1 expression in N2a cells with non-target or Beclin 1-specific siRNA treatments followed by Cory B (FIG. 7B)
To elucidate the molecular mechanism of Cory B action, the classic autophagy controlling pathway, the mTOR pathway is first examined. […] Several other pathways reported to be involved in the activation of autophagy, including AKT, AMPK, MEK/ERK, JNK, and ER stress pathways, and calcium signaling pathway (data not shown), are also tested.

Assay [1] relates to α-syn (WT, A53T, A30P) in N2a cells. Put plainly: Clearance of over-expressed WT and mutant α-syn in N2a cells (western blot). The class given is cell-based, mouse. As to the method: Native and denatured PAGE and Western blotting analysis. Samples to be run under denaturing conditions were lysed with RIPA lysis buffer (150 mM NaCl, 50 mM Tris-HCl, 0.35% sodium deoxycholate, 1 mM EDTA, 1% NP40, 1 mM PMSF, 5 μg/ml aprotinin, 5 μg/ml leupeptin). Samples for native gels were lysed with detergent-free lysis buffer (50 mM Tris/HCl pH 7.4, 175 mM NaCl, 5 mM EDTA pH 8.0, 1 mM PMSF, 5 μg/ml aprotinin, 5 μg/ml leupeptin), and sheared 5 times through a 28-gauge needle followed by 2 times of sonication for 5 seconds according to previously described protocol. For denaturing, SDS-PAGE was performed using Tris-Glycine SDS running buffer and SDS sample buffer, and for native conditions, native-PAGE was run with detergent-free Tris-Glycine running buffer (BN2007, Invitrogen) and 4× native sample buffer (BN2003, Invitrogen) on a pre-casted native PAGE gel (BN1002BOX, Invitrogen). The proteins on the gels were then transferred to PVDF membrane (RPN303F, GE Healthcare) and processed for immunoblotting. Membranes were blocked with 5% non-fat milk and probed with the appropriate primary and secondary antibodies. The desired bands were visualized using the ECL kit (32106, Pierce). The band density was quantified using the ImageJ program and normalized to that of the control group.
N2a cells over-expressed in WT and α-syn mutants (A53T and A30P) and N2a cells with GFP as negative control are subjected to Cory B treatment for 24 hours. […] Data presents as the mean±SEM from 3 independent experiments (*p<0.05, one-way ANOVA for multiple comparison and Tukey's test as post hoc test).

In the next assay the test system is JNPL P301 Tau mice. Put plainly: JNPL P301 Tau mice treated intraperitoneally. The class given is in vivo. Conditions: 20 mg/kg/d intraperitoneally, three months. Here is the method: N2a Swedish APP cells are incubated with different concentration of Cory and Cory B in the presence or absence of CQ and 3MA. […] Tg2567 APP mice, 3 months old JNPL P301 Tau mice and WT mice intraperitoneally are administrated with 20 mg/kg/d CoryB.

In assay [2] the test system is α-syn/synphilin-1 aggresomes in N2a cells. Put plainly: α-syn/synphilin-1 aggresome formation in N2a cells. The conditions noted are these: 25 μM, 48 hours. The class given is cell-based, mouse. Here is the method:
α-syn and synphilin-1 are co-expressed in N2a cells to mimic aggresome formation and are treated with 25 μM Cory B or 5 mM 3-MA for 48 hours. Cells are fixed in 4% paraformaldehyde and analyzed under a fluorescence microscope. […] The inhibition of Cory B clearance of various forms of α-syn and α-syn/synphilin-1 aggresomes in the presence of 3-MA further validates that such clearance is via the autophagy pathway. Data are presented as the mean±SEM from 3 independent experiments (***p<0.001, one-way ANOVA for multiple comparison and Tukey's test as post hoc test).

Assay [3] has as its system WT and A53T α-syn in differentiated DA neurons. Put plainly: α-syn degradation in human dopaminergic neurons differentiated from embryonic stem cells. The class given is cell-based. The text has this: Differentiation of stem cells into dopaminergic neurons. The human embryonic stem (ES) cells were differentiated into dopaminergic neurons according to a previously described protocol with minor changes. Initially, ES cells were digested with dispase (17105041, Invitrogen,) and broken into smaller clusters to form the embryonic bodies. The next day, undifferentiated floating ES cell aggregates were transferred to a new flask. The cells were maintained in DMEM/F12 medium (11320082, Invitrogen) with half medium changed every day for 3 days. On the fourth day, ES cell aggregates were collected by centrifuge and re-suspended in NSM (DMEM/F12 containing 1% N2 supplement (17502048, Invitrogen), 1 μg/ml Heparin (H3149, Sigma), 200 μM NEAA (11140050, Invitrogen) and 2 mM L-glutamine (25030081, Invitrogen)) supplemented with 10% FBS. Embryonic stem cells were transferred to a new flask and medium was changed every other day. Three days later, cell aggregates were transferred to 6-well-plates. The next day, the FBS containing media were replaced with NSM containing 20 ng/ml FGF8 (PHG0184, Invitrogen) and 100 ng/ml SHH (PMC2095, Invitrogen), media were changed every other day. Five days later, the colonies in the dish were detached by pipetting gently with a P1000 pipette. […]

For `CC[C@@H]1CN2CC[C@]3(C(=O)Nc4ccccc43)C2C[C@@H]1C(=COC)C(=O)OC` (some centres unmarked) [Cory B, Corynoxine B], the “expression of Beclin-1” value with Beclin-1 is “does not affect the expression of Beclin-1”. In addition, the “Cory B-induced autophagy under Beclin-1 siRNA treatment” value in the assay with Beclin-1 (Beclin 1-specific siRNA) is on record as “completely blocks”. The “α-syn pro-clearance activity under 3-MA and CQ” value in assay [1] (5 mM 3-MA and 30 μM CQ) is “abolish pro-clearance activity”. Further, in assay [1] (N2a over-expressing WT, A53T, A30P α-syn, 24 hours), the “WT and mutant α-syn levels” value is “reduces WT and mutant α-syn levels in a dose-dependent manner”. Further, the “GFP levels (negative control protein)” value in assay [1] (N2a with GFP, 24 hours) is recorded as “does not reduce GFP levels”. Further, the total tau result in the assay on JNPL P301 Tau mice is “significantly decrease”. Besides, the “number of α-syn/synphilin-1 aggresomes” value in assay [2] is recorded as “dramatically decreases the number of α-syn/synphilin-1 aggresomes”. In addition, the “WT and A53T α-syn levels” value in assay [3] was “dramatically decreases both WT and A53T α-syn levels”.

The values are drawn from patent US9604987B2, “Synthesis of autophagy inducing compound and the uses thereof” (Hong Kong Baptist University, priority 2012, dated 2017).
